Assays:
HIV-1 protease = tested on: HIV-1 protease; parameters: method as in The Lipton laboratory; details: ref The Lipton laboratory; cited from earlier work
IDO1 = biological target: T1, IDO1 (Homo sapiens, UniProt P14902); assay: Hela cell-based functional assay of IDO1 inhibition (kynurenine read at 480 nm); details: Hela cells, 100 ng/mL human IFN-γ, 18 h; averages ±SD of two parallel experiments
T1 construct: host or cells: HeLa cells stimulated with 100 ng/mL human IFN-γ
Protocol: Based on a comprehensive review of the literature, we employed a Hela cell-based functional assay to investigate the IDO1 inhibition activities of the designed compounds.
To assess the inhibitory effect of the designed compounds against IDO1, Hela cells were seeded at 50,000–60,000 cells per well in 100 μL of complete Dulbecco’s modified eagle medium growth medium in a 96-well plate and incubated for 12–18 h. On the second day, diluted inhibitor at a final concentration of 100 ng/mL human IFN-γ was added (100 μL per well) and incubated at 37°C with 5% CO2 for 18 h. On the third day, 140 μL of medium was transferred into a new 96-well plate, and the protein was precipitated with 10 μL of 6.1 N trichloroacetic acid (CCl3COOH) at 50°C for 30 min. The plate was then centrifuged at 2,500 rpm for 10 min, and 100 μL of supernatant was transferred to another 96-well plate and mixed with 100 μL of 2% (w/v) p-dimethylaminobenzaldehyde in CH3COOH. The plate was incubated at 25°C for 10 min, and the yellow color derived from kynurenine was measured at 480 nm using a microplate reader (PE, United States). Inhibition curves with IC50 values were generated using Prism 6.0.

Staphylococcus aureus = tested on: Staphylococcus aureus; parameters: method as in Babu et al., 2015; details: ref Babu et al., 2015; cited from earlier work
[1] = tested on: melanin-concentrating hormone; parameters: method as in McBriar et al., 2006; details: melanin-concentrating hormone antagonist; ref McBriar et al., 2006; cited from earlier work
pancreatic cancer cells = tested on: pancreatic cancer cells; parameters: method as in Khanet al.; details: ref Khanet al.; cited from earlier work
[2] = tested on: laryngeal squamous carcinoma cells; parameters: method as in Khanet al.; details: ref Khanet al.; cited from earlier work

T1 sequence (P14902 whole entry): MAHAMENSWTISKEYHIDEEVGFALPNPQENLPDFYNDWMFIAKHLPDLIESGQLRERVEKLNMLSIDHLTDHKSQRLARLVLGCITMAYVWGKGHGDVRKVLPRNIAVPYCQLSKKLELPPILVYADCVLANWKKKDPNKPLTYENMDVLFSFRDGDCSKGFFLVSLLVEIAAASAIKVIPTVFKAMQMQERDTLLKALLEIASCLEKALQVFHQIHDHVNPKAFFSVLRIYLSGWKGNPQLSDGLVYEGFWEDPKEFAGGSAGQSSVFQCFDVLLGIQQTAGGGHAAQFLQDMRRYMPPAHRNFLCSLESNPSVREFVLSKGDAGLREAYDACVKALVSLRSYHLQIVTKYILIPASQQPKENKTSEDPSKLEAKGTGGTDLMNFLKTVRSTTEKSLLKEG

IC50 (IDO1) [µM] | Compound | other results
– | COC(=O)C(NC(=O)C(NC(=O)C(Cc1ccccc1)NC(=O)NC(Cc1ccccc1)NC(=O)C(C)NC(=O)C(C)N)C(C)C)C(C)C (centres unmarked) [Compound 10] | inhibitory effect on HIV-1 protease (HIV-1 protease): moderate inhibitory effect
> 20 | CC(C)(NC(=O)Nc1ccc(Br)cc1)c1cn(Cc2ccccc2Br)nn1 [Compound 3i, 1-(2-(1-(2-bromobenzyl)-1H-1,2,3-triazol-4-yl)propan-2-yl)-3-(4-bromophenyl)urea] | –
1.73 ± 0.97 | COc1ccc(NC(=O)NC(C)(C)c2cn(Cc3cccc(Br)c3)nn2)cc1 [Compound 3g, 1-(2-(1-(3-bromobenzyl)-1H-1,2,3-triazol-4-yl)propan-2-yl)-3-(4-methoxyphenyl)urea] | –
5.82 ± 2.65 | COc1ccc(NC(=O)NC(C)(C)c2cn(Cc3cccc(OC)c3)nn2)cc1 [Compound 3h, 1-(2-(1-(3-methoxybenzyl)-1H-1,2,3-triazol-4-yl)propan-2-yl)-3-(4-methoxyphenyl)urea] | –
> 20 | CC(C)(NC(=O)Nc1ccc(Br)cc1)c1cn(Cc2cccc(Br)c2)nn1 [Compound 3j, 1-(2-(1-(3-bromobenzyl)-1H-1,2,3-triazol-4-yl)propan-2-yl)-3-(4-bromophenyl)urea] | –
> 20 | O=C(NCc1cn(Cc2ccccc2Br)nn1)Nc1ccc(Br)cc1 [Compound 3d, 1-((1-(2-bromobenzyl) -1H-1,2,3-triazol-4-yl)methyl) -3-(4-bromophenyl) urea] | –
– | O=C(Nc1ccc(F)c(C(F)(F)F)c1)N1CCN(c2ncc3cc(-c4cccnc4F)ccc3n2)CC1 [Compound 8] | inhibitory effect on the proliferation of Staphylococcus aureus (Staphylococcus aureus): excellent inhibitory effect
> 20 | COc1ccc(NC(=O)NCc2cn(Cc3ccccc3Br)nn2)cc1 [Compound 3a, 1-((1-(2-bromobenzyl) -1H-1,2,3-triazol-4-yl)methyl) -3-(4-methoxyphenyl) urea] | –
17.9 ± 3.14 | COc1ccc(NC(=O)NC(C)(C)c2cn(Cc3ccccc3Br)nn2)cc1 [Compound 3f, 1-(2-(1-(2-bromobenzyl)-1H-1,2,3-triazol-4-yl)propan-2-yl)-3-(4-methoxyphenyl)urea] | –
– | CN1CCN(CCCN(C(=O)Nc2ccc(F)c(C(F)(F)F)c2)[C@@H]2CC[C@]3(c4ccc(C#N)cc4)C[C@H]23)CC1 [Compound 7] | effect on body weight [1]: effective in reducing body weight
3.97 | Cc1ccc(-c2csc3nnc(SCC(=O)Nc4ccc5c(c4)OCO5)n23)cc1 [Amg-1, reference compound] | –
> 20 | O=C(NCc1cn(Cc2cccc(Br)c2)nn1)Nc1ccc(Br)cc1 [Compound 3e, 1-((1-(3-bromobenzyl) -1H-1,2,3-triazol-4-yl)methyl) -3-(4-bromophenyl) urea] | –
– | CNc1ccccc1C(=O)NC(=O)Nc1ccc(Oc2ncc(Br)cn2)c(C)c1 [Compound 9] | repression of pancreatic cancer cells (pancreatic cancer cells): effectively repress; repression of laryngeal squamous carcinoma cells [2]: effectively repress

From publication PMC10318132, “Synthesis and activity study of novel N,N-diphenylurea derivatives as IDO1 inhibitors” (Frontiers in Chemistry, 2023)
